Assay results published in ChEMBL document CHEMBL1140456, “Synthesis and screening of 3-substituted thioxanthen-9-one-10,10-dioxides” (Bioorg Med Chem Lett, 2007).

biological target: Breast cancer type 1 susceptibility protein (Homo sapiens, UniProt P38398); experiment: Inhibition of BRCA1 assessed as BRCT-BACH1 interaction
Sequence (P38398 whole entry): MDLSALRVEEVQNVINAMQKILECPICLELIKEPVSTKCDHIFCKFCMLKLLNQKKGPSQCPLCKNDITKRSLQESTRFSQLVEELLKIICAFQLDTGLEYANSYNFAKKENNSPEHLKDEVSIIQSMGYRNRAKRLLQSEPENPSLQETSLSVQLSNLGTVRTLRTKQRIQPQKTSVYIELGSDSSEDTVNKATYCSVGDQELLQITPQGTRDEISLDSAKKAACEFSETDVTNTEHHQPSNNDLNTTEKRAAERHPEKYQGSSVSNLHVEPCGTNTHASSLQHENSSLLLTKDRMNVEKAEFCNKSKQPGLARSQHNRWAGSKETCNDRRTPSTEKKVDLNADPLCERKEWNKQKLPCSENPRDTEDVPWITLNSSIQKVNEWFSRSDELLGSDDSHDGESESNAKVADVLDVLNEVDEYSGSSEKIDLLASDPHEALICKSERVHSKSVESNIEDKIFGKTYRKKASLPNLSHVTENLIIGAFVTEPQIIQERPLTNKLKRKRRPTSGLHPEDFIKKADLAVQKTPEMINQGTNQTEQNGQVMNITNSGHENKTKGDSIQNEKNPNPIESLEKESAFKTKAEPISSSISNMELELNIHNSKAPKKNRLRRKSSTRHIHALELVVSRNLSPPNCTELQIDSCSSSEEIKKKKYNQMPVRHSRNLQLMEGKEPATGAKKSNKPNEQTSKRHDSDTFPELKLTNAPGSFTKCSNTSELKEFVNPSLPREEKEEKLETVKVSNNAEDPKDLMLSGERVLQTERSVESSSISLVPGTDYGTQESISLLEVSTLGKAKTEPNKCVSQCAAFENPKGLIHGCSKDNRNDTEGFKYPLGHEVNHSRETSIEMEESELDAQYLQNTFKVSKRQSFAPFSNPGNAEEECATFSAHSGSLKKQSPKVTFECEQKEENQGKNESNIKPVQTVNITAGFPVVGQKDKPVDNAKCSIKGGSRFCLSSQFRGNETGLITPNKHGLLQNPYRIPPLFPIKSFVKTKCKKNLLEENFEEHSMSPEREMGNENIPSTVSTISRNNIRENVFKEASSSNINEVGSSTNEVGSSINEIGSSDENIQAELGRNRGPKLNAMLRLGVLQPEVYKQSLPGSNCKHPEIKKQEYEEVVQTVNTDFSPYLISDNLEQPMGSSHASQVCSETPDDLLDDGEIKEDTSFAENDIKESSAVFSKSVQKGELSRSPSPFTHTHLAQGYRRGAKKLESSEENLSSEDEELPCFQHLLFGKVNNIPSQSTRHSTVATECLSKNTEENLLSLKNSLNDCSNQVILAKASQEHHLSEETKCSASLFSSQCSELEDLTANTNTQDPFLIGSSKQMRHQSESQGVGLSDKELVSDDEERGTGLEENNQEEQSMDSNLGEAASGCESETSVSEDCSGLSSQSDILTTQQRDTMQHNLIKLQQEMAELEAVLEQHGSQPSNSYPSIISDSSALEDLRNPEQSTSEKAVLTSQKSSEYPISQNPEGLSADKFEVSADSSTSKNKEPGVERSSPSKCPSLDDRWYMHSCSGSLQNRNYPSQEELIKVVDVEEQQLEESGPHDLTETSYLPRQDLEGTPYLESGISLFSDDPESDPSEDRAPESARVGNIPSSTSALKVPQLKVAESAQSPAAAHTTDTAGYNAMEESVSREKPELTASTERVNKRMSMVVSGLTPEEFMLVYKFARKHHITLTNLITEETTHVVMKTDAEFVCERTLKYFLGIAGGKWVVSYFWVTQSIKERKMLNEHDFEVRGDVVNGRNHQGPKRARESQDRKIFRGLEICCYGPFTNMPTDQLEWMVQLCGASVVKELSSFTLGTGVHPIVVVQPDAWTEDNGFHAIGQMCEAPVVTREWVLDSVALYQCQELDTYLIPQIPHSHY

SMILES	Ki [µM]
NC(=O)C1CCN(c2ccc3c(c2)S(=O)(=O)c2ccccc2C3=O)CC1	30
CC1CCN(c2ccc3c(c2)S(=O)(=O)c2ccccc2C3=O)CC1	39
O=C1c2ccccc2S(=O)(=O)c2cc(N3CCC(Cc4ccccc4)CC3)ccc21	38
